In ChEMBL document CHEMBL1142151, “Association of QnrB determinants and production of extended-spectrum beta-lactamases or plasmid-mediated AmpC beta-lactamases in clinical isolates of Klebsiella pneumoniae” (2007):
≈ marks a conversion by molar mass, not a printed value.

Columns and labels:
Type in all cases: functional
[1] = test system: Klebsiella pneumoniae; assay: Inhibitory activity against Klebsiella pneumoniae 03-222
[2] = test system: Klebsiella pneumoniae; assay: Inhibitory activity against Klebsiella pneumoniae 07-006
[3] = test system: Klebsiella pneumoniae; assay: Inhibitory activity against Klebsiella pneumoniae 35
[4] = test system: Escherichia coli; assay: Inhibitory activity against azide-resistant Escherichia coli J53
[5] = test system: Escherichia coli; assay: Inhibitory activity against azide-resistant Escherichia coli J53 T07-006
[6] = test system: Escherichia coli; assay: Inhibitory activity against Escherichia coli 12-1502
[7] = test system: Escherichia coli; assay: Inhibitory activity against azide-resistant Escherichia coli J53 T35
[8] = test system: Escherichia coli; assay: Inhibitory activity against azide-resistant Escherichia coli J53 T12-1183
[9] = test system: Escherichia coli; assay: Inhibitory activity against azide-resistant Escherichia coli J53 T03-222
[10] = test system: Escherichia coli; assay: Inhibitory activity against azide-resistant Escherichia coli J53 T12-1502
[11] = test system: Klebsiella pneumoniae; assay: Inhibitory activity against Klebsiella pneumoniae 12-1183

SMILES	MIC [1] [µg/mL]	MIC [2] [µg/mL]	MIC [3] [µg/mL]	MIC [4] [µg/mL]	MIC [5] [µg/mL]	MIC [6] [µg/mL]	MIC [7] [µg/mL]	MIC [8] [µg/mL]	MIC [9] [µg/mL]	MIC [10] [µg/mL]	MIC [11] [µg/mL]
CO[C@@]1(NC(=O)Cc2cccs2)C(=O)N2C(C(=O)O)=C(COC(N)=O)CS[C@@H]21 [CEFOXITIN]	16 (≈ 37.4 µM)	16 (≈ 37.4 µM)	32 (≈ 74.9 µM)	4 (≈ 9.36 µM)	4 (≈ 9.36 µM)	> 128	4 (≈ 9.36 µM)	32 (≈ 74.9 µM)	4 (≈ 9.36 µM)	> 128	> 128
O=C(O)c1cn(C2CC2)c2cc(N3CCNCC3)c(F)cc2c1=O [CIPROFLOXACIN]	16 (≈ 48.3 µM)	16 (≈ 48.3 µM)	16 (≈ 48.3 µM)								> 16
C[C@H]1COc2c(N3CCN(C)CC3)c(F)cc3c(=O)c(C(=O)O)cn1c23.C[C@H]1COc2c(N3CCN(C)CC3)c(F)cc3c(=O)c(C(=O)O)cn1c23.O [LEVOFLOXACIN]	16	8	4		0.25	0.25	0.25		0.25	0.25	> 16
CO/N=C(\C(=O)N[C@@H]1C(=O)N2C(C(=O)O)=C(COC(C)=O)CS[C@H]12)c1csc(N)n1 [CEFOTAXIME]	4 (≈ 8.78 µM)	64 (≈ 141 µM)	> 128	< 0.25	16 (≈ 35.1 µM)	64 (≈ 141 µM)	16 (≈ 35.1 µM)	4 (≈ 8.78 µM)	2 (≈ 4.39 µM)	64 (≈ 141 µM)	16 (≈ 35.1 µM)
COc1c(N2C[C@@H]3CCCN[C@@H]3C2)c(F)cc2c(=O)c(C(=O)O)cn(C3CC3)c12 [MOXIFLOXACIN]	8 (≈ 19.9 µM)	8 (≈ 19.9 µM)	> 8		1 (≈ 2.49 µM)	0.5 (≈ 1.25 µM)	0.5 (≈ 1.25 µM)	1 (≈ 2.49 µM)	0.5 (≈ 1.25 µM)	0.5 (≈ 1.25 µM)	> 8
CC(C)(O/N=C(\C(=O)N[C@@H]1C(=O)N2C(C(=O)[O-])=C(C[n+]3ccccc3)CS[C@H]12)c1csc(N)n1)C(=O)O [CEFTAZIDIME]	128 (≈ 234 µM)	128 (≈ 234 µM)	> 128	1 (≈ 1.83 µM)	128 (≈ 234 µM)	128 (≈ 234 µM)	128 (≈ 234 µM)	128 (≈ 234 µM)	64 (≈ 117 µM)	64 (≈ 117 µM)	128 (≈ 234 µM)
CCn1cc(C(=O)O)c(=O)c2ccc(C)nc21 [NALIDIXIC ACID]	> 64	> 64	> 64	8 (≈ 34.4 µM)	32 (≈ 138 µM)	16 (≈ 68.9 µM)	32 (≈ 138 µM)	32 (≈ 138 µM)	32 (≈ 138 µM)	32 (≈ 138 µM)	> 64
